ChEMBL document CHEMBL1201862, “PubChem BioAssay data set” (2004)
The source made the active and inactive calls.

Columns and labels:
BJ [1] = test: cytotoxicity toward BJ-TERT-LT-ST fibroblasts, dose response, cell-based, RAS-independent, luminescence (AID 1935); format: functional; conditions: Homo sapiens;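 note: BJ fibroblasts immortalized with TERT plus LT and ST oncogenes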
[2] = cytotoxicity toward DRD oncogenic fibroblasts, dose response, cell-based, non-viral oncogenic, luminescence (AID 1934); format: functional; conditions: Homo sapiens
[3] = mammalian cell cytotoxicity, dose response, cytotoxicity control, plate reader, cherry-pick samples (AID 504397); format: functional, cell-based
BJ [4] = test: cytotoxicity toward BJ-TERT fibroblasts, dose response, cell-based, RAS-independent, luminescence (AID 1933); format: functional; conditions: Homo sapiens
CAAX prenyl protease 2 = CAAX prenyl protease 2 (Saccharomyces cerevisiae S288c, UniProt Q03530); format: biochemical
Chain of CAAX prenyl protease 2 (Q03530 whole entry): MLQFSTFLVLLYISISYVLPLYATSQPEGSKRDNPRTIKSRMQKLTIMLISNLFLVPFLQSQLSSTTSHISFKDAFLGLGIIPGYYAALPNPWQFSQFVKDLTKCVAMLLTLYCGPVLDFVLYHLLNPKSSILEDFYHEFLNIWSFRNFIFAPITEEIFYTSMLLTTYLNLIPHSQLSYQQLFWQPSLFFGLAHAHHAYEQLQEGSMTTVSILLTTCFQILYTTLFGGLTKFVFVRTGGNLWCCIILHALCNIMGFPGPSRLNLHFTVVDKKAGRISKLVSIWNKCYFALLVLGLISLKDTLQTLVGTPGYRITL

BJ [5] = test: cells; format: functional, cell-based; conditions: Homo sapiens
Mu-type opioid receptor = Mu-type opioid receptor (Homo sapiens, UniProt P35372); test: SAR Analysis of Agonists of the MOR Receptor using an Image-Based Assay - Set 3. [Related pubchem assays (depositor defined):AID1777, AID1785, AID1786, AID1966, AID2133, AID2136, AID2284, AID2285, AID2352]; format: functional
Chain of Mu-type opioid receptor (P35372 whole entry): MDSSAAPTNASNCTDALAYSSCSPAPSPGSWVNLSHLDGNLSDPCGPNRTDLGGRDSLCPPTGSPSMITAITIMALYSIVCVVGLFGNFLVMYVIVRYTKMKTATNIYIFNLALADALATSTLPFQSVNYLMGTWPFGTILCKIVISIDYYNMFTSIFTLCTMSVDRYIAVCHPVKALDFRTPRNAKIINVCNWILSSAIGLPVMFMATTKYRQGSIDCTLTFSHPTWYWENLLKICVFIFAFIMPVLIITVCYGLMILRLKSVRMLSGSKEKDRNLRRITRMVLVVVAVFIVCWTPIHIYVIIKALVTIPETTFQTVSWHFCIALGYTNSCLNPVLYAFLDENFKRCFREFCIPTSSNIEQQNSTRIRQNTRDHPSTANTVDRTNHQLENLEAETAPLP

[6] = target: T1, Kappa-type opioid receptor (Homo sapiens, UniProt P41145); test: SAR analysis of small molecule agonists of the kappa opioid receptor via a luminescent beta-arrestin assay - Set 3. [Related pubchem assays (depositor defined):AID1777, AID1785, AID1786, AID1966, AID2133, AID2136, AID2284, AID2500]; format: functional
T1 sequence (P41145 whole entry): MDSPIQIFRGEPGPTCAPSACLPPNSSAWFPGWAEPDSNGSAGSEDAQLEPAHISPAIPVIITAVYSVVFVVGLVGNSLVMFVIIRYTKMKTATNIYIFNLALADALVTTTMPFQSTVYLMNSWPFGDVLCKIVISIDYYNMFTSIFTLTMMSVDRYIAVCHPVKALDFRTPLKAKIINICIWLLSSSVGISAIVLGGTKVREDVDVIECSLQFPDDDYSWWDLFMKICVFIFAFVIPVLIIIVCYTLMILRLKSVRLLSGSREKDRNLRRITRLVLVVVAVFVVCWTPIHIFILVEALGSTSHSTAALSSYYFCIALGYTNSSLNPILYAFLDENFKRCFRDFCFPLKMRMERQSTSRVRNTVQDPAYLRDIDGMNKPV

[7] = target: T1, Kappa-type opioid receptor; test: KOR agonist analogs, arrestin-GFP redistribution, SAR follow-up, imaging, image-based, set 3 (AID 488833); format: functional
[8] = target: Delta-type opioid receptor (Homo sapiens, UniProt P41143); test: SAR Analysis of Agonists of the DOR Receptor using an Image-Based Assay - Set 3. [Related pubchem assays (depositor defined):AID1777, AID1786]; format: functional
Chain of Delta-type opioid receptor (P41143 whole entry): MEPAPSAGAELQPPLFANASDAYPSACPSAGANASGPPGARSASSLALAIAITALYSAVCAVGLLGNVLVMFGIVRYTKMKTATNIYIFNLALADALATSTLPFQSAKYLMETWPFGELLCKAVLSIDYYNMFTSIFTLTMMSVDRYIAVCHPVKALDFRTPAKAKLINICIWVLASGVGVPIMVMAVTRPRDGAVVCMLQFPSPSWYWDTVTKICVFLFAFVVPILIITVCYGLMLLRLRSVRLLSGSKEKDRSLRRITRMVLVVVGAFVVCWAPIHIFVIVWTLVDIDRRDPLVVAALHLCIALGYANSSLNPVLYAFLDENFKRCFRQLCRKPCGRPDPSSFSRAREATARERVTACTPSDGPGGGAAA

SUMO-activating enzyme [9] = target: T2, SUMO-activating enzyme (Homo sapiens, UniProt Q9UBT2); test: inhibitors of in vitro SUMOylation cascade, primary screen, biochemical, HTRF, uHTS (AID 2006); format: protein-complex assay
T2 sequence (Q9UBE0 whole entry): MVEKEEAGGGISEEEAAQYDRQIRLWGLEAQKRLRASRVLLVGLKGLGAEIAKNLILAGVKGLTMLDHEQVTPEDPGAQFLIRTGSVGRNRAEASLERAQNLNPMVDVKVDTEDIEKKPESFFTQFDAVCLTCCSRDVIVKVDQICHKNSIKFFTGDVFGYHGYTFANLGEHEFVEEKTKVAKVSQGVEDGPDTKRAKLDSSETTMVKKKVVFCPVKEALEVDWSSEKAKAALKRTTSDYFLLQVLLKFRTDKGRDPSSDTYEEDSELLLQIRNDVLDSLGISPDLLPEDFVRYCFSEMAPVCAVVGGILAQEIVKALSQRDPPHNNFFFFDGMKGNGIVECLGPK
T2 sequence (Q9UBT2 whole entry): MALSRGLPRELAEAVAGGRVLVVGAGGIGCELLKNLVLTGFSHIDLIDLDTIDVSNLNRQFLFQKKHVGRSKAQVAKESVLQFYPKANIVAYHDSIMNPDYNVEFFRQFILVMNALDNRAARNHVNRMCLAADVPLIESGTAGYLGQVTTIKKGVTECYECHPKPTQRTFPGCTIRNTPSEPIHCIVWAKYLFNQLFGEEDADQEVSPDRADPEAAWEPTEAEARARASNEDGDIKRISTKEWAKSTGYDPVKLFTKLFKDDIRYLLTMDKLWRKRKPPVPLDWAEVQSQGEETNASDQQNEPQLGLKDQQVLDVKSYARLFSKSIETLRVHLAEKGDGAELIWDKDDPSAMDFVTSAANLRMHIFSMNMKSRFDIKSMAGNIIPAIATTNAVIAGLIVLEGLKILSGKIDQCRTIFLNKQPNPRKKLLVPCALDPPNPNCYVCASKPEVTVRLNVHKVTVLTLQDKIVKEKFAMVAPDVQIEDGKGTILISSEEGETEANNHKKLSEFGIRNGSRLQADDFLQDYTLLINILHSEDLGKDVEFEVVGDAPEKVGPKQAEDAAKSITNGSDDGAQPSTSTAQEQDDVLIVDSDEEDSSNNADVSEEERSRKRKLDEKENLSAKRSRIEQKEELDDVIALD

SUMO-activating enzyme [10] = target: T2, SUMO-activating enzyme; test: SUMOylation inhibitor hit validation, confirmation, SUMOylation inhibitor project, biochemical, AlphaScreen (AID 2018); format: functional
Bcl-2-related protein A1 = target: T3, Bcl-2-related protein A1 (Mus musculus, UniProt Q07440); format: functional;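 note: confirmatory dose–response counterscreen on Bfl-1, used to check hits from a UBC13 polyubiquitin inhibitor campaign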
T3 sequence (Q07440 whole entry): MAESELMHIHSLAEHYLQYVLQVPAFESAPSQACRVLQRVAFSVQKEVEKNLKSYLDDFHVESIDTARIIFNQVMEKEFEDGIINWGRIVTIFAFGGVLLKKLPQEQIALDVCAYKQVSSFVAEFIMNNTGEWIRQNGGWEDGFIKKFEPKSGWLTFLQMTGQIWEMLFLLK

[11] = target: T4, Ubiquitin-conjugating enzyme E2 N (Homo sapiens, UniProt P61088); format: functional
T4 sequence (P61088 whole entry): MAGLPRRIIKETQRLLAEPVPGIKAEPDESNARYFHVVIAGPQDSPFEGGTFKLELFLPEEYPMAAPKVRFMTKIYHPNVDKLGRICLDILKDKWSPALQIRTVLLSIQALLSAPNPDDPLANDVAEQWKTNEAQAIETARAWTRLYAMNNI

[12] = target: T4, Ubiquitin-conjugating enzyme E2 N; format: functional; remark: listed apart in the source
[13] = Luminescence Cell-Based Dose Retest to Confirm Inhibitors of Cancer Stem Cells. [Related pubchem assays (depositor defined):AID2717, AID2721]; format: functional; conditions: Homo sapiens
INS1 = test: beta cell apoptosis inhibitors, cytokine rescue, dose response, luminescence, retest (AID 449756); format: functional, cell-based; conditions: Rattus norvegicus;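 note: cell death triggered by IL-1 beta plus TNF-alpha plus IFN-gamma mixture; protective hits raise ATP signal compared with cytokine alone wells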
[14] = microbe, parasite or virus in culture; format: functional; conditions: Mycobacterium tuberculosis

For `Cc1cccc(OCCCN2C(=O)C(=O)c3cc(C)ccc32)c1`, the EC50 (BJ [1]) was 11.1 µM (inconclusive), the EC50 [2] was 25.9 µM (active) and the AC50 [3] was 42.4 µM (active). The EC50 (BJ [4]) was 5.08 µM (active), the AC50 (CAAX prenyl protease 2) was 2.77 µM (active) and the EC50 (BJ [5]) was > 150 µM (not active).

With `FC(F)(F)c1cc(CSc2nnc(-c3ccccn3)n2Cc2ccco2)ccc1Cl` the EC50 (Mu-type opioid receptor) was > 32 µM (inactive), the EC50 [6] was 0.504 µM (active) and the EC50 [7] was 0.456 µM (active). The EC50 [8] was > 64 µM (inactive).

For `COc1cccc2c(SCC(=O)N/N=C/c3ccc(O)cc3O)cc(C)nc12`, the IC50 (SUMO-activating enzyme [9]) was 28.6 µM (active) and the IC50 (SUMO-activating enzyme [10]) was 3.17 µM (active).

With `COc1ccc2cc1Oc1ccc(cc1)C[C@H]1c3c(cc(OC)c4c3Oc3c(ccc5c3[C@H](C2)N(C)CC5)O4)CCN1C` the IC50 (Bcl-2-related protein A1) was > 20 µM (inactive), the IC50 [11] was 16 µM (active) and the IC50 [12] was 12.2 µM (active). For the same compound, the AC50 [13] was 3.56 µM (active), the AC50 (INS1) was 8.02 µM (active) and the CC50 [14] was 6.25 µM (active).
